Assay results as given in patent US20080146555A1, “Uses of Kinase Inhibitors and Compositions Thereof” (GPC Biotech, Inc, priority 2004, published 2008).

Test system: NCI panel of 60 cell lines
Test: cells
Source text: The evaluation of compounds at the National Cancer Institute in their panel of 60 cell lines provides a wealth of information regarding efficacy in a wide range of tumor types and genetic backgrounds. Included within this panel are cell lines derived from leukemia, melanoma and cancers of the lung, colon, brain, ovary, breast, prostate and kidney. Use of this panel provides a measure of the efficacy of compounds in cells with alterations in many genes that are associated with neoplastic transformation including p53 and Her2/Neu as well as those involved in metabolism and those which confer multi-drug resistance. The data generated in these cell lines with the protocol described below can be used to evaluate the activity of compounds.
Cells were grown in RPMI-1640 10% FCS and plated in 96 well micro-titer plates at densities ranging from 5,000 to 40,000 cells/well. The plates were incubated for 24 hours at 37° C., 5% CO2 for 24 hours. Media containing twice the desired final concentration of the compound (5 doses spanning 4 logs) was prepared and 100 μl was added to each well containing 100 μl media plus cells to yield the desired final concentration. The plates were then incubated for an additional 48 hours.
The effect of the compound on cellular viability was determined with the Sulforhodamine B (SRB) assay, which measures total protein. Cells were fixed with cold TCA to a final concentration of 10% and incubated at 4° C. for 60 minutes. The supernatant was discarded and the plates were washed five times with water and air-dried. SRB solution at […] in 1% acetic acid was added to each well and the plates were incubated for 10 minutes at room temperature. The plates were washed five times with 1% acetic acid and air-dried. The bound stain was solubilized with 10 mM trizma base and the absorbance was read on a plate reader at […].

## CC(C)N1CCN(C(=O)COc2ccc(-c3n[nH]c4c3C(=O)c3c(NC(=O)NN5CCOCC5)cccc3-4)cc2)CC1 [Compound A37]
  NCI assay Ave TGI: 2060 nM
